# Experimental data published in patent US8435997B2, “Cysteine prodrugs to treat schizophrenia and drug addiction” (Marquette University, priority 2007, dated 2013).
# Columns and labels:
# [1] = system: cocaine-induced reinstatement; experiment: Extinction/reinstatement paradigm, cocaine-induced reinstatement of lever pressing; assay type: in vivo; conditions: rats, cocaine 10 mg/kg IP
# Text: The extinction/reinstatement paradigm represents one of the most common paradigms used to screen for potential anticraving properties of novel pharmacotherapies. In the present experiments, rats were implanted with indwelling jugular catheters with an external port affixed slightly posterior to the rat's shoulder blades. Tubing is used to connect a syringe of cocaine to the external port of the indwelling catheter. Rats are then placed into standard operant chambers (Med Associates) and permitted to press a lever for an infusion of cocaine (0.5 mg/kg/200 microL, IV). Once behavior is stable, rats are permitted at least eleven 2-hr sessions to self-administer cocaine. Afterwards, the cocaine solution is replaced with saline in order to extinguish lever pressing. Once responding decreases to 10 or fewer lever presses/2 hr sessions for 3 out of 4 daily sessions, rats are tested for reinstatement (relapse). To do this, rats are placed into the operant chamber and vehicle or a cysteine/cystine prodrug (1-60 mg/kg, p.o.; N=2-12) is administered. Afterwards, rats then receive an injection of cocaine (10 mg/kg, IP). Responding is then assessed for 120 min.
# [2] = system: PCP-evoked deficits in pre-pulse inhibition; experiment: Prepulse inhibition of startle response, phencyclidine (PCP)-induced sensorimotor gating deficits; assay type: in vivo, rats; conditions: for sensorimotor gating (inhibition of startle response by pre-pulse) after PCP: rats, 30 mg/kg po, 60 min prior to PCP 1 mg/kg SC, pre-pulse 2-15 db above background, FIG. 2
# [3] = system: extracellular glutamate in the prefrontal cortex; experiment: Extracellular glutamate in the prefrontal cortex compared to baseline after prodrug administration; assay type: in vivo; conditions: rats; compound 7 30 mg/kg po (N=1) versus N-acetylcysteine 60 mg/kg IP (N=4); FIG. 1
# Procedure: FIG. 1 is a bar graph depicting extracellular glutamate in the prefrontal cortex (compared to baseline) following administration of cysteine prodrugs N-acetylcysteine (60 mg/kg, IP; N=4) or compound 7 (30 mg/kg, po; N=1) in rats. […] Compound 7 was given to the animal orally, and thereby subjected to potential first-pass metabolism. Conversely, N-acetylcysteine was given IP in order to avoid extensive first pass metabolism that would occur following oral administration. Thus, compound 7 produced a larger relative increase in glutamate in rats as compared to NAC even though NAC was given in its preferred route of administration and at twice the concentration.
smiles,measurement,setting,value
"CCOC1=NC(CS)C(OCC)=NC1 (centres unmarked) [Compound 5, (3,6-Diethoxy-2,5-dihydro-pyrazin-2-yl)-methanethiol]",cocaine-induced reinstatement (responding),"[1]; 1 mg/kg p.o., FIG. 9",sufficient to block cocaine-induced reinstatement
same,sensorimotor gating as assessed by inhibition of a startle response after PCP,"[2]; 1 mg/kg orally 60 min prior to testing, PCP 0-1.25 mg/kg SC, FIG. 6",significant increase in sensorimotor gating
"CCOC1=NC(CSSCC2N=C(OCC)CN=C2OCC)C(OCC)=NC1 (centres unmarked) [Compound 6, Bis[(3,6-Diethoxy-2,5-dihydro-pyrazin-2-yl)-methanethiol]]",restoration of sensorimotor gating after PCP,"[2]; oral administration (0-1 mg/kg) 60 min prior to testing, prepulse 2, 6, 15 dB above background, FIG. 7",significantly restored sensorimotor gating at the highest prepulse intensity
"O=C1CNC(=O)[C@H](CSSC[C@H]2NC(=O)CNC2=O)N1 [Compound 7, Bis[2,5-Piperazinedione, 3-(mercaptomethyl)-]]",sensorimotor gating (inhibition of startle response by pre-pulse) after PCP,[2],significant improvement in sensorimotor gating relative to PCP controls and rats receiving NAC+PCP
same,peak increase in extracellular glutamate in the prefrontal cortex (compared to baseline),[3],much larger peak increase in glutamate
CC(=O)N[C@@H](CS)C(=O)O [N-acetylcysteine],cocaine-induced reinstatement (responding),"[1]; 30 and 60 mg/kg IP, responding over 120 min, FIG. 8",significant reduction in cocaine-induced reinstatement
same,cocaine-induced reinstatement (responding),"[1]; given orally, FIG. 9",less effective when given orally
same,restoration of inhibition of a startle response after PCP,"[2]; infused directly into the rodent prefrontal cortex, 0-100 microM, FIG. 5",significantly restored inhibition of a startle response at each concentration tested
same,restoration of sensorimotor gating after PCP,"[2]; intraperitoneal injection 60 min prior to testing, three prepulse stimulus intensities, FIG. 4",failed to significantly restore sensorimotor gating at any of the three prepulse stimulus intensities
same,attenuation of deficits in prepulse inhibition produced by phencyclidine,"[2]; oral administration 60 min prior to testing, FIG. 3",fails to significantly attenuate deficits in prepulse inhibition
same,sensorimotor gating (inhibition of startle response by pre-pulse) after PCP,[2],trend toward improved sensorimotor gating (p=0.1)
